As usually defined, the inhibition is the change of the read-out against control, counted positive when it falls.

Activity calls are given as the source filed them. The calls are words filed in the database; no cut-off is given here.

For 1 compound, Activity and inhibition results are on record in ChEMBL document CHEMBL6121063, “Identification of a Potent and Selective CDK9 Degrader as a Targeted Therapeutic Option for the Treatment of Small-Cell Lung Cancer” (J Med Chem, 2025).

In experiment [1] the target is T1, Protein cereblon/Cyclin-dependent kinase 9 (Homo sapiens, UniProt P50750+Q96SW2). Nature of the experiment: PROTAC activity at CRBN/CDK9 in human NCI-H69 cells assessed as induction of CDK9 degradation at 10 nM by Western blot analysis relative to control. In kind it is cell-based.
The target of experiment [2] is Cyclin-dependent kinase 13/Cyclin-K (Homo sapiens) (UniProt Q14004+O75909). Nature of the experiment: Inhibition of CDK13/Cyclin K (unknown origin) at 10 nM relative to control. Format: protein-complex assay.
Experiment [3] concerns NCI-H69. Nature of the experiment: Antiproliferative activity against human NCI-H69 cells assessed as reduction in cell viability incubated for 72 hrs in presence of thalidomide by celltiter-Glo assay. Format: functional, cell-based. In general terms: In ATP-based viability assays light output follows the ATP content of the culture.
The target in experiment [4] is Cyclin-dependent kinase 1/cyclin B1 (Homo sapiens) (UniProt P06493+P14635). Briefly: Inhibition of CDK1/cyclin B1 (unknown origin) at 10 nM relative to control. Format: protein-complex assay.
Experiment [5] addresses T1, Protein cereblon/Cyclin-dependent kinase 9. Briefly: PROTAC activity at CRBN/CDK9 in human NCI-H69 cells assessed as induction of CDK9 degradation preincubated with MG132 for 2 hrs followed by compound addition and measured after 3 hrs by Western blot analysis. Format: cell-based. On the technique in general: In western blotting, separated proteins are transferred to a membrane and probed.

In experiment [6] the target is CDK2/Cyclin A2 (Homo sapiens) (UniProt P24941+P20248). The settings on record: dose 10.0 nM.
Experiment [7] has as its target Cyclin-Y/Cyclin-dependent kinase 16 (Homo sapiens) (UniProt Q00536+Q8ND76). The note with it: dose 10.0 nM.
Experiment [8] concerns NCI-H446. Briefly: Antitumor activity against human NCI-H446 cells expressing luciferase-GFP xenografted in female NU-NU mouse model assessed as decrease in systemic metastasis at 12.5 to 25 mg/kg, po administered for 19 days. Format: functional, organism-based. The settings on record: dose 12.5-25 mg/kg, time 19.0 day. A general note: A xenograft is tissue or cells of one species grown in another, often human tumour cells in immunodeficient mice.

Experiment [9] deals with NCI-H69. Briefly: Induction of apoptosis in human NCI-H69 cells incubated for 36 hrs by Annexin V-FITC/PI staining based flow cytometric analysis. The settings on record: dose 1-8 nM. In kind it is functional, cell-based.
Experiment [10] has as its system NCI-H446. Briefly: Cell cycle arrest in human NCI-H446 cells assessed as increase in G1 phase population incubated for 36 hrs by PI staining based flow cytometric analysis. The settings on record: dose 0.5-2 nM. Format: functional.
The subject of experiment [11] is NCI-H446. Nature of the experiment: Antitumor activity against human NCI-H446 cells xenografted in female NU-NU mouse model assessed as decrease in Ki67 level in tumor at 12.5 to 25 mg/kg, po administered once daily for 15 days by immunohistochemical staining based analysis. Format: functional, organism-based. The settings on record: dose 12.5-25 mg/kg, time 15.0 day.

In experiment [12] the target is T1, Protein cereblon/Cyclin-dependent kinase 9. Nature of the experiment: PROTAC activity at CRBN/CDK9 in human NCI-H69 cells assessed as increase in CDK9 ubiquitination preincubated with MG132 for 2 hrs followed by compound addition and measured after 3 hrs by co-immunoprecipitation analysis. Format: cell-based.
Experiment [13] deals with NCI-H446. Nature of the experiment: Downregulation of CDK9 protein level in human NCI-H446 cells at 10 nM incubated for 3 hrs by quantitative proteomic analysis. In kind it is functional, cell-based.
Experiment [14] concerns the target CDK3/Cyclin E (Homo sapiens) (UniProt P24864+Q00526). Briefly: Inhibition of CDK3/cyclin E1 (unknown origin) at 10 nM relative to control. Format: protein-complex assay.
For experiment [15], the target named is T1, Protein cereblon/Cyclin-dependent kinase 9. Nature of the experiment: In vivo PROTAC activity at CRBN/CDK9 in female NU/NU mouse model xenografted with human NCI-H446 cells assessed as decrease in CDK9 expression in tumor at 12.5 to 25 mg/kg, po administered once daily for 15 days by immunohistochemical staining based analysis. The settings on record: dose 12.5-25 mg/kg, time 15.0 day. Format: functional, organism-based.

Experiment [16] relates to Small cell lung cancer cell line. Briefly: Antitumor activity against LDI-2025-362195 patient derived Small cell lung cancer cell line xenografted in BALB/c nude mouse assessed as reduction in tumor growth at 25 mg/kg, po administered once daily for 7 days. Format: functional, organism-based. The settings on record: Homo sapiens, time 7.0 day.
For experiment [17], the target named is Cyclin-dependent kinase 9 (Homo sapiens) (UniProt P50750). Nature of the experiment: Inhibition of CDK9-related signaling in human NCI-H69 cells assessed as decrease in RNA polymerase II phosphorylation at Ser2 residue at 0.5 to 10 nM incubated for 24 hrs by Western blot analysis. The settings on record: dose 0.5-10 nM. Format: cell-based.
Experiment [18] relates to NCI-H446. Briefly: Antitumor activity against human NCI-H446 cells expressing luciferase-GFP xenografted in female NU-NU mouse model assessed as decrease in tumor burden at 12.5 to 25 mg/kg, po administered for 19 days. The note with it: dose 12.5-25 mg/kg, time 19.0 day. Format: functional, organism-based.
Experiment [19] deals with NCI-H69. Nature of the experiment: Downregulation of CDK9 protein level in human NCI-H69 cells at 1 to 10 nM incubated for 8 hrs by Western blot analysis. Format: functional, cell-based. The note with it: dose 1-10 nM.
Experiment [20] addresses T1, Protein cereblon/Cyclin-dependent kinase 9. Briefly: PROTAC activity at CRBN/CDK9 in human NCI-H446 cells assessed as induction of CDK9 degradation by measuring reduction in half-life incubated upto 24 hrs in presence of cycloheximide by Western blot analysis. Format: cell-based.
Experiment [21] has as its system NCI-H69. Briefly: Inhibition of colony formation in human NCI-H69 cells at 2 to 4 nM incubated for 8 days by crystal violet staining based analysis. Format: functional, cell-based. The settings on record: dose 2-4 nM, time 8.0 day.
For the next experiment, the system named is DMS-114. Briefly: Inhibition of cell invasion in human DMS-114 cells assessed as decrease in number of cells passing through upper chamber at 2to 4 nM incubated for 48 hrs by crystal violet staining based microscopic analysis. In kind it is functional.
Experiment [22] deals with Cyclin-dependent kinase 9 (Homo sapiens) (UniProt P50750). Nature of the experiment: Inhibition of CDK9-related signaling in human NCI-H69 cells assessed as decrease in RNA polymerase II phosphorylation at Ser5 residue at 0.5 to 10 nM incubated for 24 hrs by Western blot analysis. Format: cell-based. The note with it: dose 0.5-10 nM.
The target in experiment [23] is T1, Protein cereblon/Cyclin-dependent kinase 9. Nature of the experiment: In vivo PROTAC activity at CRBN/CDK9 in female BALB/c nude mouse xenografted with human NCI-H446 cells assessed as induction of CDK9 degradation in tumor at 25 mg/kg, po measured after 24 hrs by Western blot analysis. In kind it is functional, organism-based.

T1 sequence (P50750 whole entry, looked up): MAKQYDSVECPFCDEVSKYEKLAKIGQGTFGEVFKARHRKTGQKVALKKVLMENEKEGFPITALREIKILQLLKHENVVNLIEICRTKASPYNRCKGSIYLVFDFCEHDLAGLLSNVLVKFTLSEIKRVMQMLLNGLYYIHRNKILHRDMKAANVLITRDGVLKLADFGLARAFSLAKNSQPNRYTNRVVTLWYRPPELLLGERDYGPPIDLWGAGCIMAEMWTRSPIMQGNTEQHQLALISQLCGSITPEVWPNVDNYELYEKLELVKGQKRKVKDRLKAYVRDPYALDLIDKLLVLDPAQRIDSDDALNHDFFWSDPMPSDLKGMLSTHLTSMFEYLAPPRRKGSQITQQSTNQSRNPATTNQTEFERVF
T1 sequence (Q96SW2 whole entry, looked up): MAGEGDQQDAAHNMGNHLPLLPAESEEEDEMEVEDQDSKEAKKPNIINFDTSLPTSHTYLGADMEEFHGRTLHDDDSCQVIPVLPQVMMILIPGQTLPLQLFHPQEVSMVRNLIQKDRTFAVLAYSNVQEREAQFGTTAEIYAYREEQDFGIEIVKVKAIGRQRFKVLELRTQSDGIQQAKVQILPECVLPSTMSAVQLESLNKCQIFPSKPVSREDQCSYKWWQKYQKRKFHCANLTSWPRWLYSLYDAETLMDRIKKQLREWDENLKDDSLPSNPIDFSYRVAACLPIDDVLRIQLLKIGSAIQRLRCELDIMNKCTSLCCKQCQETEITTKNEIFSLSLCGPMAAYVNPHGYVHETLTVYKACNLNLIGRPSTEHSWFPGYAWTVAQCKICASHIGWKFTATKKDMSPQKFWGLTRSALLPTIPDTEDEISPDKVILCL
Chain of Cyclin-dependent kinase 9 (Homo sapiens) (P50750 whole entry): as the sequence (P50750 whole entry, looked up) above
Chain of Cyclin-dependent kinase 13/Cyclin-K (Homo sapiens) (O75909 whole entry, looked up): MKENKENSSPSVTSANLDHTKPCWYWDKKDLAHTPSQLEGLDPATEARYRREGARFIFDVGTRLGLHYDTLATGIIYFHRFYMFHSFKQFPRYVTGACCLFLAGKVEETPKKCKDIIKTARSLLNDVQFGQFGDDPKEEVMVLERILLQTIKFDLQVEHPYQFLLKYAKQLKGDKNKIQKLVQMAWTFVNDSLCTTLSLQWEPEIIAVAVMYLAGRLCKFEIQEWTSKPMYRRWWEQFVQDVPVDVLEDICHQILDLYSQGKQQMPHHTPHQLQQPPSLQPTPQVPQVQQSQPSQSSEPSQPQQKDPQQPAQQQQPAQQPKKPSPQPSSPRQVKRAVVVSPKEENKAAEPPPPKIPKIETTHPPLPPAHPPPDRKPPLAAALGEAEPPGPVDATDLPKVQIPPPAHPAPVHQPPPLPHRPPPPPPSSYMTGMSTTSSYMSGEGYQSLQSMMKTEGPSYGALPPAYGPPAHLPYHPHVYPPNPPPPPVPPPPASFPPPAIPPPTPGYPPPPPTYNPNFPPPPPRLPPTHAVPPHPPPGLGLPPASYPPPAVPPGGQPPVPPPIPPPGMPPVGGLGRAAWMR
Chain of Cyclin-dependent kinase 13/Cyclin-K (Homo sapiens) (Q14004 whole entry, looked up): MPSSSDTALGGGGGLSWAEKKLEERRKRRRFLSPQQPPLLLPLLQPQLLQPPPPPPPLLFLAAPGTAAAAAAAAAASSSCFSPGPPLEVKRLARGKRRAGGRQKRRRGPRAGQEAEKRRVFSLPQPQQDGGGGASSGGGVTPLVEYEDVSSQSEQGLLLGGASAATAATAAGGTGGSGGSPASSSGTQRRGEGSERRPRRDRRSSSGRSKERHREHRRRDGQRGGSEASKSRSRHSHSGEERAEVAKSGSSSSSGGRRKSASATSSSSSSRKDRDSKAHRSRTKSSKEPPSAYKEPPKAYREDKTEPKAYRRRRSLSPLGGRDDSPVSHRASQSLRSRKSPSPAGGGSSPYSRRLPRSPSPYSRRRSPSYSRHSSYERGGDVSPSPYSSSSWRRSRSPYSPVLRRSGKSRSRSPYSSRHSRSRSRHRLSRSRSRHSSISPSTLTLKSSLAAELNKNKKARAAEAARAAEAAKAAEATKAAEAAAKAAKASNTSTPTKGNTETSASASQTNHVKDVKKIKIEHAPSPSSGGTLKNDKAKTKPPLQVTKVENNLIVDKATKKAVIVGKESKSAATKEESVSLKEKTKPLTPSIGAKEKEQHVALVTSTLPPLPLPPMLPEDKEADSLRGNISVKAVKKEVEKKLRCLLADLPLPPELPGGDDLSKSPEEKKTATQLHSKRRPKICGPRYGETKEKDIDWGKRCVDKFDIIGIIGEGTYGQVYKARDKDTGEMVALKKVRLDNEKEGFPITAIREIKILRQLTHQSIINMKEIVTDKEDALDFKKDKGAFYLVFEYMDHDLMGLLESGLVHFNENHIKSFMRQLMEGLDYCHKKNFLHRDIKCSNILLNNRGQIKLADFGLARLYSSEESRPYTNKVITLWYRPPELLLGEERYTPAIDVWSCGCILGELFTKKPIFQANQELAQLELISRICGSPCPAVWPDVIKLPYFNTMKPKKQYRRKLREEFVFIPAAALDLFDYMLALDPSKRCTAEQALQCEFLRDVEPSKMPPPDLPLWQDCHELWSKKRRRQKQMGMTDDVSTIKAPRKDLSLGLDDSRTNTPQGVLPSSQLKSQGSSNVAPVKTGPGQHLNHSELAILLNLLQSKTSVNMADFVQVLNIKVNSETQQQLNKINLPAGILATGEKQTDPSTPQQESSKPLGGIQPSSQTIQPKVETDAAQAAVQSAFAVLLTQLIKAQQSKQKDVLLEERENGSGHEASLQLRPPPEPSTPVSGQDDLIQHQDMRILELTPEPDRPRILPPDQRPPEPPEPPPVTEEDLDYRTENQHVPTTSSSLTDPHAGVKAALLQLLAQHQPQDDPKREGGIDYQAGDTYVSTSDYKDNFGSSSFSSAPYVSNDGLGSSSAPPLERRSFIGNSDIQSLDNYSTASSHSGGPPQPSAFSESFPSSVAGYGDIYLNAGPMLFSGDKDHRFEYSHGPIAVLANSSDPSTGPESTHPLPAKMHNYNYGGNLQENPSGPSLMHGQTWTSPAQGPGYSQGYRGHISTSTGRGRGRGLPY
Chain of CDK3/Cyclin E (Homo sapiens) (P24864 whole entry, looked up): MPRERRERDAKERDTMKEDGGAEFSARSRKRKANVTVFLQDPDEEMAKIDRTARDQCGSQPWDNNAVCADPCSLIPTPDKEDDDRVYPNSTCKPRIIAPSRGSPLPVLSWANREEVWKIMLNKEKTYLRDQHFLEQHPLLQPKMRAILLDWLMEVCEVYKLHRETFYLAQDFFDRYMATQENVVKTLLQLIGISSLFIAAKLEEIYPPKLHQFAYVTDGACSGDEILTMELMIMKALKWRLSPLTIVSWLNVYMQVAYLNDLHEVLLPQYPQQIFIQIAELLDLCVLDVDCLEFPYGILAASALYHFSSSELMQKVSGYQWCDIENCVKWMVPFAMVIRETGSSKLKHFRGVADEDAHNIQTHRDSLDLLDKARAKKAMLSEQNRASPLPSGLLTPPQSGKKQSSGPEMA
Chain of CDK3/Cyclin E (Homo sapiens) (Q00526 whole entry, looked up): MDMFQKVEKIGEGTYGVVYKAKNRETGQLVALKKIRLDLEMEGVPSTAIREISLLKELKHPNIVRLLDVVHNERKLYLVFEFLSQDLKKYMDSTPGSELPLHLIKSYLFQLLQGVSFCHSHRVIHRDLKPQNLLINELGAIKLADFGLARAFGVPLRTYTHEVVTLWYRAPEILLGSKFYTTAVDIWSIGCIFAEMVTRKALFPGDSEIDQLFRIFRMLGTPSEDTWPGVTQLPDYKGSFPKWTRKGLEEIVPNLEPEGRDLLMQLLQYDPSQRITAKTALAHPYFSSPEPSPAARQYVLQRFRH
Chain of Cyclin-dependent kinase 1/cyclin B1 (Homo sapiens) (P06493 whole entry, looked up): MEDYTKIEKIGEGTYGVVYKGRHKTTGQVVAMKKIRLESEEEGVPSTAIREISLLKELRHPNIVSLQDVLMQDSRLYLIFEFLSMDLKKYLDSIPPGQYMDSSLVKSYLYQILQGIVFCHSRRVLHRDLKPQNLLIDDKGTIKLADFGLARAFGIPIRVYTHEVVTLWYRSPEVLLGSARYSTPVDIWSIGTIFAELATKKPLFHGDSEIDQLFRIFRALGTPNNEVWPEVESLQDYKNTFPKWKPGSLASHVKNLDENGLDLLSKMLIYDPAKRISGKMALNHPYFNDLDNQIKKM
Chain of Cyclin-dependent kinase 1/cyclin B1 (Homo sapiens) (P14635 whole entry, looked up): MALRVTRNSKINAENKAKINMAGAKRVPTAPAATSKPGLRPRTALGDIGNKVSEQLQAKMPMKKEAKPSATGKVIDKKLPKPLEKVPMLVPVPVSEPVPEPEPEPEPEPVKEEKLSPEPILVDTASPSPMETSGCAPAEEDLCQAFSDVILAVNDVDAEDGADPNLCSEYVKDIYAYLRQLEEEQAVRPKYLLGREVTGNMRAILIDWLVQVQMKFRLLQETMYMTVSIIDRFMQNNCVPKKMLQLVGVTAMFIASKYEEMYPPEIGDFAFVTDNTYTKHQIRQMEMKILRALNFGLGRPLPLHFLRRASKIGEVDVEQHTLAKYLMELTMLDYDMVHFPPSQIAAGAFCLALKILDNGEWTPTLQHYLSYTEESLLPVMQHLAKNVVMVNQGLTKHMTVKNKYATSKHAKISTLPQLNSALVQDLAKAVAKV

On to `O=C1CCC(Nc2cccc(N3CCN(CC4CCN(CC(=O)N5CCC(NC(=O)c6n[nH]cc6NC(=O)c6c(Cl)cccc6Cl)CC5)CC4)CC3)c2)C(=O)N1` (centres undefined), for which the Activity in [1] is 91.2%; in the experiment on NCI-H69 [9], “Dose-dependent-effect”; in the experiment with NCI-H446 [10] it was “Dose-dependent-effect”; in experiment [23], “Not active; Very Short Self-Renewal Period For Cdk9 Observed”. The inhibition in [2] stood at 56%; in experiment [4] it was 46%; in experiment [6] it was 33%; in experiment [7] it was 38%; in experiment [14] it was 31%. The result (in the experiment on NCI-H69 [3]; in [5]) was inactive. The result (in the experiment with NCI-H446 [8]; in the experiment on NCI-H446 [11]; in [12]; in the experiment with NCI-H446 [13]; in experiment [15]; in experiment [16]) was Active. The outcome (in the experiment on NCI-H446 [18]; in the experiment on NCI-H69 [19]; in [20]) was Active. The inhibition entry (in [17]; with NCI-H69 [21]; in the experiment with DMS-114; in [22]) was “Active” in each case.
